This assay has as its target BTK (Homo sapiens (Human), UniProt Q06187). The assay is described as follows: Btk in vitro inhibitory activity (one of Method A TR-FRET, Method B electrophoretic mobility shift, Method C radiometric filter binding). It is filed as biochemical. For orientation: A gel shift assay detects complexes by their altered migration in electrophoresis.
Setting [1] is: determined using one of the methods of Example 355a, 355b and 355c, read-out: BTK IC50.

Read-outs that look alike come from different tables or passages of the source.

The term IC50 denotes the concentration that gives 50% inhibition.

Chain of BTK (Q06187 whole entry): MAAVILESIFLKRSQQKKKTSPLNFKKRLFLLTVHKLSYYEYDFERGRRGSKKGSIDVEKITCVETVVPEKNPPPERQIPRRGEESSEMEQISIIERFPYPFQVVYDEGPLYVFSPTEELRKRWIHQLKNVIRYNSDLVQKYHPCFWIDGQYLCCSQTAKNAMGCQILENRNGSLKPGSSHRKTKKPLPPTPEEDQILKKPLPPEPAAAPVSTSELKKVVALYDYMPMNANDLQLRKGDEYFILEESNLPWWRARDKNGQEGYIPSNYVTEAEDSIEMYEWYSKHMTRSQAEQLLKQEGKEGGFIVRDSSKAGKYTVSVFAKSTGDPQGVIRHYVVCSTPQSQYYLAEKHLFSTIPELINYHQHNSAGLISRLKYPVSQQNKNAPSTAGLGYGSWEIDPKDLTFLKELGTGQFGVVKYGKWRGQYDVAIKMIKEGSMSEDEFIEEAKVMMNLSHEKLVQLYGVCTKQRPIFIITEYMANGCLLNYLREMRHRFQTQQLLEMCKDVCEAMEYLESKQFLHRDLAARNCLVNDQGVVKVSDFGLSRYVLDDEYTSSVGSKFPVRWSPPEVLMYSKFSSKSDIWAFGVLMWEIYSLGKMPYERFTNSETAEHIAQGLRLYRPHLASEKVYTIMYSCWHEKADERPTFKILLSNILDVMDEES

For the compound `C[C@@H]1[C@H](NC(=O)N(C)C)CCCN1c1cnc(C(N)=O)c(Nc2ccc(C3(C#N)CC3)cc2)n1` [Example 240, 3-(4-(1-cyanocyclopropyl)phenylamino)-5-((2R,3R)-3-(3,3-dimethylureido)-2-methylpiperidin-1-yl)pyrazine-2-carboxamide], the IC50 is, setting by setting: under setting [1], below 10 nM; (read-out: Btk (IC50)) below 10 nM.

For `NC(=O)c1ncc(N2CCC[C@@H](NC=O)C2)nc1Nc1ccc(C2CCN(C3CCCC3)CC2)cc1` [Example 295, (R)-3-(4-(1-cyclopentylpiperidin-4-yl)phenylamino)-5-(3-formamidopiperidin-1-yl)pyrazine-2-carboxamide], the IC50 by setting is: under setting [1], below 10 nM; (read-out: Btk (IC50)) below 10 nM.

As to `NC(=O)c1ncc(N2CCC[C@@H](NC(=O)c3cccnc3)C2)nc1Nc1ccc(C2CCN(C3CCCC3)CC2)cc1` [Example 304, (R)-3-(4-(1-cyclopentylpiperidin-4-yl)phenylamino)-5-(3-(nicotinamido)piperidin-1-yl)pyrazine-2-carboxamide], the IC50 was below 10 nM under setting [1] and below 10 nM (read-out: Btk (IC50)). Turning to `CN(C)C(=O)N[C@@H]1CCCN(c2cnc(C(N)=O)c(Nc3ccc(=O)n(C)c3)n2)C1` [Example 186, (R)-5-(3-(3,3-dimethylureido)piperidin-1-yl)-3-(1-methyl-6-oxo-1,6-dihydropyridin-3-ylamino)pyrazine-2-carboxamide], the IC50 runs as follows: (Btk (IC50)) 10 to 100 nM; under setting [1], 10 to 100 nM. Consider `CN(C)C(=O)N(C)[C@@H]1CCCN(c2cnc(C(N)=O)c(Nc3ccc(N4CCS(=O)(=O)CC4)cc3)n2)C1` [Example 229, (R)-3-(4-(1,1-dioxothiomorpholino)phenylamino)-5-(3-(1,3,3-trimethylureido)piperidin-1-yl)pyrazine-2-carboxamide], for which the IC50 fell in the range of 10 to 100 nM. Also, the IC50 under setting [1] lay within 10 to 100 nM. As for `CC(C)(C)c1ccc(C(=O)N2CCC[C@@H](Nc3nnc(C(N)=O)c(Nc4ccc(C(=O)N5CCOCC5)cc4)n3)C2)cc1` [Example 62, (R)-3-(1-(4-tert-butylbenzoyl)piperidin-3-ylamino)-5-(4-(morpholine-4-carbonyl)phenylamino)-1,2,4-triazine-6-carboxamide], the IC50 under setting [1] is 10 to 100 nM. In the case of `CCOc1ccc(C(=O)N[C@@H]2CCCN(c3nnc(C(N)=O)c(Nc4ccc(C(=O)N5CCOCC5)cc4)n3)C2)cc1` [Example 88, (R)-3-(3-(4-ethoxybenzamido)piperidin-1-yl)-5-(4-(morpholine-4-carbonyl)phenylamino)-1,2,4-triazine-6-carboxamide], the IC50 runs as follows: under setting [1], below 10 nM; (read-out: Btk (IC50)) below 10 nM. As to `CN(C)C(=O)N[C@@H]1CCCN(c2cnc(C(N)=O)c(Nc3ccc(C4CCN(c5ccccn5)CC4)cc3)n2)C1` [Example 174, (R)-5-(3-(3,3-dimethylureido)piperidin-1-yl)-3-(4-(1-(pyridin-2-yl)piperidin-4-yl)phenylamino)pyrazine-2-carboxamide], the IC50 under setting [1] fell in the range of 10 to 100 nM and the IC50 (read-out: Btk (IC50)) is 10 to 100 nM. In the case of `COc1ccc(C(=O)N[C@@H]2CCCN(c3nnc(C(N)=O)c(Nc4ccc(N5CCC(C(=O)N(C)C)CC5)cc4)n3)C2)cc1` [Example 332, (R)-5-(4-(4-(dimethylcarbamoyl)piperidin-1-yl)phenylamino)-3-(3-(4-methoxybenzamido)piperidin-1-yl)-1,2,4-triazine-6-carboxamide], under setting [1], the half-maximal inhibitory concentration (IC50) was below 10 nM. As to `CCC(=O)N[C@@H]1CCCN(c2nnc(C(N)=O)c(Nc3ccc(C4CCN(C5CCCC5)CC4)cc3)n2)C1` [Example 330, (R)-5-(4-(1-cyclopentylpiperidin-4-yl)phenylamino)-3-(3-propionamidopiperidin-1-yl)-1,2,4-triazine-6-carboxamide], the IC50 reads like this: under setting [1], below 10 nM; (read-out: Btk (IC50)) below 10 nM. In the case of `CN(C)C(=O)N[C@@H]1CCCN(c2cnc(C(N)=O)c(Nc3ccc(C4(C)CCNCC4)cc3)n2)C1` [Example 221, (R)-5-(3-(3,3-dimethylureido)piperidin-1-yl)-3-(4-(4-methylpiperidin-4-yl)phenylamino)pyrazine-2-carboxamide], the IC50 runs as follows: under setting [1], below 10 nM; (read-out: Btk (IC50)) below 10 nM. In the case of `C[C@H]1[C@H](N)CCCN1c1cnc(C(N)=O)c(Nc2ccc(C3CCN(C4CCCC4)CC3)cc2)n1` [Example 231, 5-((2S,3R)-3-amino-2-methylpiperidin-1-yl)-3-(4-(1-cyclopentylpiperidin-4-yl)phenylamino)pyrazine-2-carboxamide], the IC50 lay within 100 to 1000 nM (Btk (IC50)) and 100 to 1000 nM under setting [1]. For `COc1ccc(C(=O)N[C@@H]2CCCN(c3cnc(C(N)=O)c(Nc4ccc(C5CCN(C6CCCC6)CC5)cc4)n3)C2)cc1` [Example 135, (R)-3-(4-(1-cyclopentylpiperidin-4-yl)phenylamino)-5-(3-(4-methoxybenzamido)piperidin-1-yl)pyrazine-2-carboxamide], the IC50 was below 10 nM under setting [1] and below 10 nM (read-out: Btk (IC50)). Take `CN(C)C(=O)N[C@@H]1CCCN(c2cnc(C(N)=O)c(Nc3ccc(F)cc3)n2)C1` [Example 179, (R)-5-(3-(3,3-dimethylureido)piperidin-1-yl)-3-(4-fluorophenylamino)pyrazine-2-carboxamide]: the IC50 lay in the range of 10 to 100 nM under setting [1] and 10 to 100 nM (read-out: Btk (IC50)). Consider `CCC(=O)N1CCC(C)(c2ccc(Nc3nc(N4CCC[C@@H](NC(=O)N(C)C)C4)cnc3C(N)=O)cc2)CC1` [Example 224], for which the IC50 under setting [1] was below 10 nM. Turning to `C[C@@H]1[C@H](NC(=O)N(C)C)CCCN1c1cnc(C(N)=O)c(Nc2ccc(C3(C(F)(F)F)CC3)cc2)n1` [Example 239, 5-((2R,3R)-3-(3,3-dimethylureido)-2-methylpiperidin-1-yl)-3-(4-(1-(trifluoromethyl)cyclopropyl)phenylamino)pyrazine-2-carboxamide], the IC50 reads like this: under setting [1], below 10 nM; (read-out: Btk (IC50)) below 10 nM. Consider `CN(C(=O)N[C@@H]1CCCN(c2cnc(C(N)=O)c(Nc3ccc(C4(C(N)=O)CC4)cc3)n2)C1)c1cc(Cl)cc(C(F)(F)F)c1` [Example 324, (R)-3-(4-(1-carbamoylcyclopropyl)phenylamino)-5-(3-(3-(3-chloro-5-(trifluoromethyl)phenyl)-3-methylureido)piperidin-1-yl)pyrazine-2-carboxamide], for which the IC50 under setting [1] was in the range of 10 to 100 nM and the half-inhibitory concentration (IC50) (read-out: Btk (IC50)) is 10 to 100 nM. For `C[C@@H]1[C@H](NC(=O)N(C)C)CCCN1c1cnc(C(N)=O)c(Nc2ccc(C3(C(N)=O)CC3)cc2)n1` [Example 241, 3-(4-(1-carbamoylcyclopropyl)phenylamino)-5-((2R,3R)-3-(3,3-dimethylureido)-2-methylpiperidin-1-yl)pyrazine-2-carboxamide], the 50% inhibitory concentration (IC50) under setting [1] is below 10 nM.

For the compound `CN(C(=O)c1ccc(C(C)(C)C)cc1)[C@@H]1CCCN(c2nnc(C(N)=O)c(Nc3ccc(C(=O)N4CCOCC4)cc3)n2)C1` [Example 3, (R)-3-(3-(4-tert-butyl-N-methylbenzamido)piperidin-1-yl)-5-(4-(morpholine-4-carbonyl)phenylamino)-1,2,4-triazine-6-carboxamide], under setting [1], the IC50 lay within 10 to 100 nM. Turning to `N#CCC(=O)N1CCC(c2ccc(Nc3nc(N4CCC[C@@H](NC(=O)N5CCCCC5)C4)cnc3C(N)=O)cc2)CC1` [Example 150, (R)-3-(4-(1-(2-cyanoacetyl)piperidin-4-yl)phenylamino)-5-(3-(piperidine-1-carboxamido)piperidin-1-yl)pyrazine-2-carboxamide], the 50% inhibitory concentration (IC50) by setting is: under setting [1], below 10 nM; (read-out: Btk (IC50)) below 10 nM.

The values are drawn from US9656988B2 (Pharmacyclics LLC, priority 2013, dated 2017).
